The record followed here is PubChem BioAssay AID1996.

≈ marks a conversion by molar mass, not a printed value. Bounds are passed on as bounds.

The conditions of the series: buffer; pH 7.4; 200.0 µM.
`Cc1ccc(CN2CCN(C(=O)CC(C)C)CC2)cc1`: the solubility (kinetic) was determined as 25.1 µg/mL (≈ 91.5 µM). `COC(=O)CSC(=S)N1CCCC(C)C1` (stereo not given) displayed a solubility (kinetic) greater than 37.1 µg/mL.

`Cc1ccccc1OCC(=O)N1CCc2ccccc2C1` had a kinetic solubility of 38.6 µg/mL (≈ 137 µM).

With `CCOc1cc(C(=O)Nc2cccnc2)cc(OCC)c1OCC`, the solubility (kinetic) turned out to be 47.3 µg/mL (≈ 143 µM). The compound `N#Cc1cc2cc3ccccc3nc2n2c(=O)c3ccccc3nc12` registered a solubility (kinetic) of less than 0.2 µg/mL. The result for `CCOC(Cn1ccc(=O)[nH]c1=O)OCC` reads greater than 34.2 µg/mL; that for `O=C(/C=C/c1cccnc1)c1cc(F)ccc1O`, 19.8 µg/mL (≈ 81.4 µM). Turning to `Cc1ccc(Cl)c(OCC(=O)N2CCc3ccccc3C2)c1`, the solubility (kinetic) turned out to be 6.2 µg/mL (≈ 19.6 µM). The result for `O=C(Cc1nc(-c2cnccn2)no1)NNC(=O)Nc1ccccc1` reads greater than 50.9 µg/mL; that for `O=C1CN(c2ccccc2)C(=O)N1`, greater than 26.4 µg/mL. `CC(C)[C@H](NC(=O)c1ccccc1)C(=O)NCCc1ccccc1`: the kinetic solubility was found to be 10.3 µg/mL (≈ 31.7 µM). As for `COc1ccccc1NC(=S)NC(NC(C)=O)C(Cl)(Cl)Cl` (stereo not given), the figure is 19 µg/mL (≈ 51.3 µM). In turn, `COc1ccc(OCCn2c(N)nc3ccccc32)cc1` had a kinetic solubility greater than 42.5 µg/mL.

`CCCn1c(N)c(C(=O)CN2CCN(S(=O)(=O)c3cccc(Cl)c3)CC2)c(=O)[nH]c1=O` came in with a kinetic solubility greater than 70.5 µg/mL. `O=c1c(-c2ccccc2)c(O)c2ccccc2n1-c1ccccc1` gave a kinetic solubility greater than 47 µg/mL. Compound `CC(=O)c1ccc(OCC(O)CNCc2ccc3c(c2)OCO3)cc1` (stereo not given) showed a kinetic solubility of 46.2 µg/mL (≈ 135 µM). Compound `CCCCC(=O)Nc1cccc(-c2nc3ncccc3o2)c1C` gave a solubility (kinetic) greater than 46.4 µg/mL. In turn, `O=C1N=c2ccccc2=C1c1c(O)[nH]c2c(C(F)(F)F)cccc12` came in with a solubility (kinetic) of less than 0.4 µg/mL. `O=C(O)Cc1ccc(-n2cccc2)cc1` showed a solubility (kinetic) greater than 30.2 µg/mL. As for `CCOc1ccccc1NC(=S)N1CCCCCC1`, the figure is greater than 41.8 µg/mL. The result for `CN(c1ccc(OCC(=O)OCC(=O)Nc2ccc(OC(F)F)cc2)cc1)S(=O)(=O)c1cccs1` reads 19.1 µg/mL (≈ 36.3 µM). `COc1cccc(/C=C/C(=O)c2cccc([N+](=O)[O-])c2)c1` showed a solubility (kinetic) of 2.4 µg/mL (≈ 8.47 µM). On to `C=CCN(Cc1nc(-c2ccccc2)no1)C(=O)c1ccco1`, for which the solubility (kinetic) worked out at 38.4 µg/mL (≈ 124 µM).

Consider `Cc1cc(O)c(C(=O)Nc2cccc(Cl)c2)c(=O)n1C`, for which the solubility (kinetic) is less than 0.3 µg/mL.

In the case of `N#Cc1c(SCC(N)=O)nc2c(c1-c1ccncc1)CCCC2`, the solubility (kinetic) is greater than 48.7 µg/mL. For the compound `COc1ccc(S(=O)(=O)N2CCCCCC2)cc1C(=O)OCC(=O)NC1CCS(=O)(=O)C1` (stereo not given), the kinetic solubility is greater than 73.3 µg/mL. `O=C(O)c1cccc(N2C(=O)c3cccc4cccc(c34)C2=O)c1` had a kinetic solubility greater than 47.6 µg/mL. Take `O=C(NCCOCc1ccccc1)C(c1ccccc1)c1ccccc1`: the solubility (kinetic) came to 23.3 µg/mL (≈ 67.4 µM). Compound `Cc1ccc(N2C(=O)C3CCC(C)(C2=O)C3(C)C)cc1` (stereo not given) gave a solubility (kinetic) of 26.7 µg/mL (≈ 98.4 µM). In turn, `OC[C@@H](O)C1OC2NC(=S)OC2C1O` (stereo not given in full) displayed a solubility (kinetic) greater than 33.2 µg/mL.

`O=C(CSc1ccc(F)cc1)NCCc1ccc(Cl)cc1` showed a solubility (kinetic) of 8.6 µg/mL (≈ 26.6 µM). Turning to `COc1ccc(C(=O)O/N=C(\N)c2ccccn2)c(OC)c1`, the kinetic solubility was greater than 45.2 µg/mL. With `CCc1nc(Nc2ccc(O)cc2)c2oc3ccccc3c2n1.Cl`, the solubility (kinetic) stood at 1.2 µg/mL. In turn, `CC1c2ccccc2N(NC(=O)Cc2ccccc2)C1C` (stereo not given) had a kinetic solubility greater than 42.1 µg/mL. In turn, `O=C1CN(C(=O)/C=C/c2ccccc2)CCN1` returned a solubility (kinetic) greater than 34.5 µg/mL. The result for `CN(C)CCCNC(=O)c1cc(C(=O)c2ccccc2F)c[nH]1` reads greater than 47.6 µg/mL; that for `COc1ccccc1C(=O)NCCSCc1c(F)cccc1Cl`, 13.6 µg/mL (≈ 38.4 µM); that for `Cc1ccc(S(=O)(=O)Nc2nc(C)c(C)s2)cc1`, 13.5 µg/mL (≈ 47.8 µM). `COc1ccccc1/C=C/C(=O)OCC(=O)c1cc(C)n(C)c1C` registered a solubility (kinetic) of 7.9 µg/mL (≈ 24.1 µM). `C=CCc1c(C)[nH]c(=O)[nH]c1=O` yielded a solubility (kinetic) greater than 24.9 µg/mL. As to `COc1ccc(C/C(N)=N/OC(=O)CCc2ccccc2)cc1`, the kinetic solubility was 7.7 µg/mL (≈ 24.7 µM). The compound `CC(=O)Nc1ccc2nc(NC(=O)CN3CCOCC3)sc2c1` returned a kinetic solubility greater than 50.2 µg/mL. In the case of `O=[N+]([O-])c1cc(S(=O)(=O)NC2=NCCCCC2)ccc1Cl`, the solubility (kinetic) was 39 µg/mL (≈ 118 µM).

With `O=C(O)CN1C(=O)CC(c2ccccc2)CC1=O`, the solubility (kinetic) worked out at 25 µg/mL (≈ 101 µM). Take `N#Cc1ccccc1COC(=O)c1ccc2c(c1)OCO2`: the kinetic solubility worked out at 5.2 µg/mL (≈ 18.5 µM). `COc1ccc2oc(C(=O)OC(C)C(=O)N3C(C)CCCC3C)c(C)c2c1` (stereo not given): the solubility (kinetic) worked out at 8.4 µg/mL (≈ 22.5 µM). As for `NC(=O)c1ccccc1NS(=O)(=O)c1ccc(F)cc1`, the figure is greater than 44.1 µg/mL. Compound `COc1cc(C(=O)c2ccccc2)c([N+](=O)[O-])cc1OC` registered a kinetic solubility greater than 43.1 µg/mL. With `CCC1(OC(=O)c2ccccc2)CC(C)N(C)CC1C.Cl` (stereo not given), the kinetic solubility was 30.3 µg/mL. As for `Nc1ccc(C(=O)Nc2nccs2)cc1`, the solubility (kinetic) is greater than 32.9 µg/mL. As for `O=C(O)c1cc(=O)c2ccccc2[nH]1`, the figure is greater than 28.4 µg/mL.

For the compound `O=C(c1cc2ccccc2o1)N1CCOCC1`, the solubility (kinetic) was greater than 34.7 µg/mL. As for `CC(=O)N1Cc2[nH]c3ccccc3c2CC1C(=O)O` (stereo not given), the figure is greater than 38.7 µg/mL; as for `CCN(CC)C(=O)c1cc(Cl)ccn1`, 26.8 µg/mL (≈ 126 µM). `c1ccc2oc(-c3csc(N4CCOCC4)n3)cc2c1` gave a solubility (kinetic) of 4.7 µg/mL (≈ 16.4 µM).

Regarding `NC(=O)C1CCCN(C(=S)NCc2ccc3c(c2)OCO3)C1` (stereo not given), the kinetic solubility was greater than 48.2 µg/mL. In turn, `CCCc1cnc(N2CCN(S(=O)(=O)c3cccs3)CC2)nc1` gave a solubility (kinetic) of less than 0.2 µg/mL. The compound `Cc1cc(Nc2ccc(C)c(C)c2)c2ccccc2n1` came in with a kinetic solubility greater than 39.4 µg/mL. With `Cc1ccc(NC(=O)/C=C2\NC(=O)CS2)cc1`, the kinetic solubility turned out to be 4.1 µg/mL (≈ 16.5 µM). Turning to `COc1cc(OC)c(C(=O)OCC(=O)Nc2ccc(S(=O)(=O)N3CCOCC3)cc2)cc1OC`, the kinetic solubility was 9.6 µg/mL (≈ 19.4 µM).

Regarding `CC(=O)Nc1ccc(OS(=O)(=O)c2ccc(Cl)cc2)cc1`, the solubility (kinetic) is 38.6 µg/mL (≈ 118 µM).

In turn, `CCc1ccccc1NC(=O)CCS(=O)(=O)c1ccc(OC)cc1` registered a kinetic solubility of 26.4 µg/mL (≈ 76 µM). As for `N#CC1(NC(=O)CN2CCc3ccccc3C2)CCCC1`, the solubility (kinetic) is greater than 42.5 µg/mL.

`CCc1noc(C)c1C(=O)OCC(=O)c1ccccc1OC` registered a kinetic solubility of 4.6 µg/mL (≈ 15.2 µM).

`O=C(NCCCNC(=O)c1cnccn1)c1ccc(Br)cc1` returned a solubility (kinetic) of 52.2 µg/mL (≈ 144 µM). In the case of `Cc1ccc(Nc2nc(-c3cccs3)cs2)nc1`, the solubility (kinetic) amounted to 0.8 µg/mL (≈ 2.93 µM). `Cc1nc2sc3c(c2c(=O)[nH]1)CCCCC3` gave a kinetic solubility of 2 µg/mL (≈ 8.54 µM). Consider `Cc1ccc(C(=O)NC(=S)NCc2ccccc2)cc1`, for which the solubility (kinetic) is less than 0.3 µg/mL.

Turning to `CC1CC(C)CN(c2cc(N(C)CCO)c([N+](=O)[O-])c3nonc23)C1` (stereo not given), the kinetic solubility worked out at 52.1 µg/mL (≈ 149 µM).

For `CC1CC(c2ccccc2)=Nc2ccccc2N1` (stereo not given), the solubility (kinetic) came out at 26.2 µg/mL (≈ 111 µM). Compound `CCN(C(=O)c1cccs1)c1nc(-c2ccc(OC)cc2)cs1` registered a solubility (kinetic) of 0.6 µg/mL (≈ 1.74 µM).

Take `CCOC(=O)COc1cc([N+](=O)[O-])cc2cccnc12`: the kinetic solubility was greater than 41.4 µg/mL.

For `O=C(O)CN1CCN(Cc2ccc(F)cc2)C1=O`, the solubility (kinetic) was greater than 37.8 µg/mL. Regarding `CC(C)c1ccc(NS(=O)(=O)c2ccc3c(c2)oc(=O)n3C)cc1`, the kinetic solubility was 0.9 µg/mL (≈ 2.6 µM).

Consider `COc1ccc(CC(=O)Nc2cc(C)ccn2)cc1OC`, for which the solubility (kinetic) was 27.7 µg/mL (≈ 96.7 µM). `CCCCc1ccc(NC(=S)N2CCCC2)cc1` showed a kinetic solubility of 9.2 µg/mL (≈ 35.1 µM). On to `CCc1nc2sc3ccccc3c(=O)c2c(=O)n1Cc1ccc(OC)cc1`, for which the solubility (kinetic) came out at 0.8 µg/mL (≈ 2.11 µM). Compound `Cc1ccc(Cn2c(CCCO)nc3ccccc32)cc1` yielded a solubility (kinetic) of 34.5 µg/mL (≈ 123 µM). `CC(N)C(=O)OC(C)(C)Cc1ccc(Cl)cc1.Cl` (stereo not given): the kinetic solubility was greater than 43.8 µg/mL. As for `O=C(CCCOc1ccccc1)Nc1cccc(S(=O)(=O)N2CCOCC2)c1`, the solubility (kinetic) amounted to 57.6 µg/mL (≈ 142 µM).

In turn, `Cc1ccc(-c2ccc(OC(=O)c3ccc(=O)[nH]c3)c(C)c2)cc1` returned a solubility (kinetic) of less than 0.7 µg/mL. Compound `O=C(CCS(=O)(=O)c1ccccc1)Nc1ccc(S(=O)(=O)Nc2nccs2)cc1` had a kinetic solubility of 23.6 µg/mL (≈ 52.3 µM). Consider `CCOc1ncccc1C(=O)Nc1nc(SC)ns1`, for which the kinetic solubility is 7.8 µg/mL (≈ 26.3 µM). The result for `Cl.Cn1sccc1=O` reads 18.4 µg/mL. `Cc1noc(C)c1C(=O)OCC(=O)Nc1ncc(C(F)(F)F)cc1Cl`: the kinetic solubility was 16.8 µg/mL (≈ 44.5 µM). Compound `O=C(NC1=NCCS1)C1CCN(S(=O)(=O)c2cc([N+](=O)[O-])ccc2Cl)CC1` yielded a kinetic solubility of 20.8 µg/mL (≈ 48 µM). Take `CC(=O)Nc1ccc(NC(=O)C(C)OC(=O)c2ccc(S(=O)(=O)N3CCCCCC3)cc2)cc1` (stereo not given): the solubility (kinetic) is 9.6 µg/mL (≈ 19.7 µM). For `Cc1ccc(NC(=O)COC(=O)C2CCC(=O)N2)c([N+](=O)[O-])c1` (stereo not given), the kinetic solubility is greater than 48.2 µg/mL.

Consider `Cc1cc(OCCn2ccnc2)cc(C)c1Cl`, for which the solubility (kinetic) was determined as 30.8 µg/mL (≈ 123 µM). Turning to `Cc1cc(SCC#N)nc2ccccc12`, the kinetic solubility worked out at 14.6 µg/mL (≈ 68.1 µM). As for `CC(C)(CO)CNC1CCCN(C2Cc3ccccc3C2)C1` (stereo not given), the figure is 40.5 µg/mL (≈ 134 µM); as for `CC1(C)NC(=O)N(CCC(=O)Nc2cc(C(F)(F)F)ccc2Cl)C1=O`, greater than 56.7 µg/mL. `CN1C(=O)C(c2ccccc2[N+](=O)[O-])C(=O)c2ccccc21` (stereo not given) returned a kinetic solubility greater than 44.4 µg/mL.

On to `CCN(CC)CCCN=C(N)N.O=S(=O)(O)O`, for which the kinetic solubility is 24 µg/mL. The result for `O=C(CCCOc1ccc(Cl)cc1Cl)Nc1ccccn1` reads 0.6 µg/mL (≈ 1.85 µM). Take `Cn1ccnc1C(O)(c1ccccc1)c1nccn1C`: the kinetic solubility is greater than 40.2 µg/mL. `O=C(CSc1ncnc2sccc12)N1CCCCC1` registered a solubility (kinetic) greater than 44 µg/mL. The result for `O=C(OCc1ccc([N+](=O)[O-])cc1)c1cnc(Cl)c(Cl)c1` reads 0.4 µg/mL (≈ 1.22 µM).

`O=C(COC(=O)CNS(=O)(=O)c1cc(C(F)(F)F)ccc1Cl)NC1CC1` yielded a solubility (kinetic) greater than 62.2 µg/mL. `CCOC(=O)CN(C(=O)c1ccccc1[N+](=O)[O-])C(C)(C)C` registered a solubility (kinetic) of 43.7 µg/mL (≈ 142 µM).

In turn, `O=C(COC(=O)c1nsc(Cl)c1Cl)NC1CCCC1` registered a solubility (kinetic) greater than 48.5 µg/mL. `Cc1ccc(S(=O)(=O)Nc2cccc3ncccc23)cc1` had a solubility (kinetic) of 31.1 µg/mL (≈ 104 µM). The result for `Cc1ccc2[nH]cc(CCNC(=O)c3cccs3)c2c1` reads greater than 42.7 µg/mL; that for `Cc1ccc(N2Cc3ccccc3C2=O)cc1`, 7.8 µg/mL (≈ 34.9 µM); that for `Clc1ccc(C2CSc3c4ncnc-4ncn32)cc1` (stereo not given), 33.9 µg/mL (≈ 117 µM).

The kinetic solubility is the concentration staying in solution when a stock, usually in DMSO, is diluted into the medium.
